Reference: BindingDB's records for doi:10.1016/j.bmc.2021.116093 (Wayne State University School of Medicine, 2021)

Columns and labels:
[1] = Inhibition of human RFC expressed in Chinese Hamster MTXRII-OuaR2-4 R2 cells assessed as reduction in cell proliferation after 96 hrs by CellTiter-blue assay
[2] = Inhibition of human PCFT expressed in Chinese Hamster MTXRII-OuaR2-4 R2 cells assessed as reduction in cell proliferation after 96 hrs by CellTiter-blue assay
[3] = Inhibition of human FRbeta expressed in Chinese Hamster MTXRII-OuaR2-4 R2 cells assessed as reduction in cell proliferation after 96 hrs by CellTiter-blue assay
[4] = Inhibition of human FRalpha expressed in Chinese Hamster MTXRII-OuaR2-4 R2 cells assessed as reduction in cell proliferation after 96 hrs by CellTiter-blue assay

Row | SMILES | IC50 [1] | IC50 [2] | IC50 [3] | IC50 [4]
1 | Nc1nc2sc(CCCCc3cc(C(=O)N[C@@H](CCC(=O)O)C(=O)O)cs3)cc2c(=O)[nH]1 | > 1000 nM | > 1000 nM | 1.2 nM | 0.91 nM
2 | Nc1nc2sc(CCCCc3csc(C(=O)N[C@@H](CCC(=O)O)C(=O)O)c3)cc2c(=O)[nH]1 | > 1000 nM | 460 nM | 5.6 nM | 5.6 nM
3 | Nc1nc2sc(CCCCc3ccc(C(=O)N[C@@H](CCC(=O)O)C(=O)O)s3)cc2c(=O)[nH]1 | > 1000 nM | > 1000 nM | 1.7 nM | 2.6 nM
4 | Nc1nc2sc(CCCCc3ccc(C(=O)N[C@@H](CCC(=O)O)C(=O)O)o3)cc2c(=O)[nH]1 | > 1000 nM | > 1000 nM | 2.6 nM | 11 nM
5 | Nc1nc2sc(CCCc3ccc(C(=O)N[C@@H](CCC(=O)O)C(=O)O)s3)cc2c(=O)[nH]1 | > 1000 nM | > 1000 nM | 1.8 nM | 0.34 nM
6 | Nc1nc2sc(CCCc3csc(C(=O)N[C@@H](CCC(=O)O)C(=O)O)c3)cc2c(=O)[nH]1 | > 1000 nM | 107 nM | 0.24 nM | 0.44 nM
7 | Nc1nc2sc(CCCc3cc(C(=O)N[C@@H](CCC(=O)O)C(=O)O)cs3)cc2c(=O)[nH]1 | > 1000 nM | 80 nM | 0.72 nM | 1.1 nM
8 | Nc1nc2sc(CCCCc3ccc(C(=O)N[C@@H](CCC(=O)O)C(=O)O)cc3)cc2c(=O)[nH]1 [(S)-2-(4-(4-(2-amino-4-oxo-3,4-dihydrothieno[2,3-d]pyrimidin-6-yl)butyl)benzamido)pentanedioic acid] | > 1000 nM | – | 20 nM | 9 nM
